Measurements reported in publication PMC12519263, “Antifibrotic Efficacy of a Nintedanib–Peptide Conjugate and Diagnostic Potential of a Fluorescent Companion Probe Targeting αVβ6 Integrin in Idiopathic Pulmonary Fibrosis” (ACS Pharmacology & Translational Science, 2025).

Experiment: Body weight monitoring and tolerability in Study #2
Assay type: in vivo, C57Bl/6 mice
Settings: triple oropharyngeal BLM, within the first 7 days, compared to saline group
Description: Figure A illustrates the setup of the pharmacological experiment identified as Study #2 (see also Table S2 in the Supporting Information). After triple BLM instillation, all mice underwent μCT imaging on days 14 and 21, indicating the beginning and the end of the therapeutic window. , On day 14, the BLM-treated mice were divided into 5 groups, namely, Vehicle, NINT (23), NINT (94), PepNIN 1 (23), and Ligand 11 (23). The reference standard in our drug discovery studies is NINT (94), representing the ideal dosage (94 μmol/kg) of the FDA-approved drug that produces antifibrotic effects in the preclinical BLM model. To better emphasize the synergistic therapeutic effect of nintedanib when it is covalently conjugated with our integrin ligand, the stoichiometric dose of nintedanib within the PepNIN 1 group was reduced by four times (to 23 μmol/kg). […]
The experiments were carried out on male C57Bl/6 mice aged 7–8 weeks, purchased from Envigo (San Pietro al Natisone, Udine, Italy). […] All required measures were taken to mitigate the animals’ distress or discomfort, and a designated veterinarian or trained technicians assessed pain levels daily using a Visual Analogue Scale (VAS) ranging from 0 to 10. […]

Bleomycin hydrochloride [BLM]
body weight reduction: 10–15%
